pIC50, pKi: −log10 of the molar value. Read-outs that look alike come from different tables or passages of the source. Bounds are passed on as bounds.

Series [1] can be described thus: In vivo rat clearance assay. The conditions noted are these: plasma, iv. As to the method: In Vivo Rat Clearance Assay
Cannulations of the jugular and carotid vessels of rats under anesthesia were performed one day prior to the pharmacokinetic study. M. J. Free, R. A. Jaffee; ‘Cannulation techniques for the collection blood and other bodily fluids’; in: Animal Models; p. 480-495; N. J. Alexander, Ed.; Academic Press; (1978). Drug (10 mg/mL) was administered via the jugular vein in a vehicle usually consisting of: propylene glycol/saline, containing 100 mM sodium bicarbonate in a 1:1 ratio. Animals were dosed with 10-20 mg drug/kg and blood samples were drawn at 0, 2, 5, 7, 10, 15, 20, 30, 60, and 90 minutes from an indwelling carotid catheter. The blood was centrifuged to plasma and stored at −20° C. until analysis. Pharmacokinetic analysis of data was performed by non-linear regression using standard software such as RStrip (MicroMath Software, UT) and/or Pcnonlin (SCI Software, NC) to obtain clearance values.
Rat plasma was extracted with an equal volume of acetonitrile (containing 0.1% TFA). Samples were then centrifuged at approximately 1,000×g and the supernatant analyzed by gradient HPLC. A typical assay procedure is described below.
A standard curve was run at 20, 10, 5, 2 and 1 μg/mL concentrations.

Series [2] deals with IL-1β, human peripheral blood mononuclear cells (PBMC). The series is described as follows: PBMC cell assay: IL-1β assay with human PBMC or enriched adherent mononuclear cells, LPS-stimulated. The settings on record: Homo sapiens, PBMC, Table 17. It counts as cell-based. The procedure, abridged:
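Mature IL-1β is measured by ELISA in supernatants after 16–18 hr at 37 °C, 5% CO2, with LPS (5 ng/ml final) and test compound (0.1% DMSO final). Cells are human PBMC (6×10^6 cells/ml) or plate-adherent mononuclear cells (2.5−3.0×10^5 per well), and the 5–6 compound concentrations span the ICE Ki.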

The target of series [3] is T1, ICE (Homo sapiens, UniProt P29466).
T1 sequence (P29466 120-297 limits assumed): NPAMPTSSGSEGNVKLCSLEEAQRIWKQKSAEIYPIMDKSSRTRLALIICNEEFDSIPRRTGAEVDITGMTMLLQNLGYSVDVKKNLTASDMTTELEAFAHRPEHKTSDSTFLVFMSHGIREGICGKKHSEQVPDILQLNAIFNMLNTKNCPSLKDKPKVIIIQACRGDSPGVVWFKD
T1 sequence (P29466 317-404 limits assumed): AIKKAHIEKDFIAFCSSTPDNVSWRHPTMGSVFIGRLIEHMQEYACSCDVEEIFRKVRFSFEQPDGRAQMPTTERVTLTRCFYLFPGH
The series is described as follows: Enzyme assay with UV-visible substrate (visible ICE assay, Succinyl-Tyr-Val-Ala-Asp-pNitroanilide). It counts as biochemical. An outline of the steps:
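Read-out is the rate of pNA chromophore release (mOD/min, linear fit) monitored at 405-603 nm over 20 min at 37° C. Substrate was succinyl-Tyr-Val-Ala-Asp-pNitroanilide, added after a 15 min room-temperature preincubation of ICE with inhibitor.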

In series [4] the test system is IL-1β, human whole blood. In words: Whole blood assay for IL-1β production. The conditions noted are these: Homo sapiens, Table 17; read-out: Whole human blood IC50. It counts as cell-based. An outline of the steps: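 IL-1β was quantified by ELISA in plasma diluted 1:200. The plasma came from EDTA-anticoagulated human whole blood incubated at 30 °C for 16-18 h with LPS (final 5.0 ng/ml) plus a saline serial dilution of compound. Controls were no-LPS, no-inhibitor and highest-vehicle.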

The subject of series [5] is IL-1β production, LPS-challenged mice. The series is described as follows: In vivo acute assay for efficacy as anti-inflammatory agent: LPS-induced IL-1β production in mice. The conditions noted are these: Mus musculus, po, LPS challenged mice, compound PO, 50 mg/kg, read-out: percent inhibition of IL-1β production. More on the design: species or system mouse. The procedure, abridged:
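Serum IL-1β was measured by ELISA 7 h after an IP dose of 20 mg/kg LPS in CD1 mice, n=6 per group. Compounds in olive oil/DMSO/ethanol 90:5:5 were injected IP 1 h post-LPS (some analogs were dosed at challenge), and separate groups received 50 mg/kg by oral gavage.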

The mark [6] stands for this setting: 0 h, administered 0 h relative to time of LPS challenge.
Where [7] appears, read: 2 h, administered −2 h relative to time of LPS challenge.

The molecule `COC(=O)N[C@H]1CCC(=O)N2CCC[C@@H](C(=O)N[C@@H](CC(=O)O)C(=O)COc3cccnc3)N2C1=O` [Compound 283c, [3S(1S,9S)]3-[6,10-Dioxo-9-(methoxycarbonylamino)-1,2,3,4,7,8,9,10-octahydro-6H-pyridazino[1,2-a][1,2]diazepine-1-carboxamido]-4-oxo-5-(3-pyridinyloxy)pentanoic acid] displayed a melting point of 90 to 105 °C. The clearance in series [1] (Table 17) came to 50 mL/min/kg. This molecule showed a pIC50 in series [2] of 5.40.
On the same counts, the results for `COC(=O)N[C@H]1CCC(=O)N2CCC[C@@H](C(=O)N[C@@H](CC(=O)O)C(=O)CSc3nnnn3-c3ccccc3)N2C1=O` [Compound 280c, [3S(1S,9S)]3-[6,10-Dioxo-9-(methoxycarbonylamino)-1,2,3,4,7,8,9,10-octahydro-6H-pyridazino[1,2-a][1,2]diazepine-1-carboxamido]-4-oxo-5-[5-(1-phenyltetrazolyl)-thio]pentanoic acid] are 105 to 130 °C, 86 mL/min/kg and 5.00.
Turning to `COc1ccc(C(=O)NN2CCC(=O)N3CCC[C@@H](C(=O)N[C@H](C=O)CC(=O)O)N3C2=O)cc1` [Compound 1052, [3S(4S)]3-[6,10-Dioxo-7-(4-methoxybenzoylamino)-octahydro-6H-pyridazino[1,2-a][1,2,4]triazepine-4-carboxamido]-4-oxobutanoic acid], the melting point was in the range of 138 to 142 °C. The negative logarithm of the Ki (pKi) in series [3] (Table 17) was 7.00. The molecule further had a clearance in series [1] (Table 17) of 16 mL/min/kg. The same molecule gave a pIC50 in series [2] of 5.60.
As for `O=C[C@H](CC(=O)O)NC(=O)[C@@H]1CCCN2C(=O)CCN(NC(=O)Cc3ccccc3)C(=O)N12` [Compound 1095, [3S(4S)]3-(6,10-Dioxo-1,2,3,4,7,8,9,10-octahydro-7-phenylacetylamino-6H-pyridazino[1,2-a][1,2,4]triazepine-4-carboxamido)-4-oxobutanoic acid], the melting point fell in the range of 180 to 186 °C. The pKi in series [3] (Table 17) was 6.44. The clearance in series [1] (Table 17) came out at 28 mL/min/kg. Besides, in series [2], the pIC50 is 5.22.
As to `CCOC1OC(=O)C[C@@H]1NC(=O)[C@@H]1CCCN2C(=O)CC[C@H](NC(=O)c3cc4ccccc4[nH]3)C(=O)N12` (stereo partly drawn) [Compound 550o, [1S,9S(2RS,3S)]6,10-Dioxo-N-(2-ethoxy-5-oxotetrahydrofuran-3-yl)-9-(2-indoloylamino)-1,2,3,4,7,8,9,10-octahydro-6H-pyridazino[1,2-a][1,2]diazepine-1-carboxamide], the melting point lay in the range of 155 to 170 °C. Also, the negative-log IC50 (pIC50) in series [2] is 6.35. Moreover, the negative logarithm of the IC50 (pIC50) in series [4] is 5.52. In series [5] (setting [6]), the inhibition at 50 mg/kg stood at 64%. Moreover, the inhibition at 50 mg/kg in series [5] (setting [7]) was 19%.
Take `O=C(O)C[C@H](NC(=O)[C@@H]1CCCN2C(=O)CC[C@H](NC(=O)c3ccccc3)C(=O)N12)C(=O)Cn1cnccc1=O` [Compound 510d, [3S(1S,9S)]3-[6,10-Dioxo-1,2,3,4,7,8,9,10-octahydro-9-(phenycarbonylamino)-6H-pyridazino[1,2-a][1,2]diazepine-1-carboxamido]-4-oxo-5-{2-[4(3H)-pyrimidone]}pentanoic acid]: the melting point lay in the range of 140 to 180 °C. Moreover, the pKi in series [3] (Table 17) was 5.64. Also, the pIC50 in series [2] was below 4.70.
`CC(=O)Nc1ccc(C(=O)N[C@H]2CCC(=O)N3CCC[C@@H](C(=O)N[C@H]4CC(=O)OC4OCc4ccccc4)N3C2=O)cc1` (stereo partly drawn) [Compound 213x, [1S,9S(2RS,3S)]9-[4-(Acetylamino)benzoylamino]-N-(2-benzyloxy-5-oxo-tetrahydrofuran-3-yl)-6,10-dioxo-1,2,3,4,7,8,9,10-octahydro-6H-pyridazino[1,2-a][1,2]diazepine-1-carboximide]: the melting point was 150 to 170 °C. In series [2], this molecule showed a negative-log IC50 (pIC50) of 5.35. Besides, in series [4], the pIC50 was 5.60. Also, the inhibition at 50 mg/kg in series [5] (setting [6]) was found to be 78%. Besides, in series [5] (setting [7]), the inhibition at 50 mg/kg was 0%.
`O=C[C@H](CC(=O)O)NC(=O)[C@@H]1CCCN2C(=O)CC[C@H](NC(=O)c3ccc(O)cc3)C(=O)N12` [Compound 456]: the melting point is above 260 °C. The same molecule showed a pKi in series [3] (Table 5) of 8.35. Further, the clearance in series [1] (10-20 mg/kg) came out at 12.7 mL/min/kg. Further, the inhibition at 50 mg/kg in series [5] (setting [6]) was 69%. The inhibition at 50 mg/kg in series [5] (1 h, administered +1 h relative to time of LPS challenge) was determined as 56%. Besides, the inhibition at 50 mg/kg in series [5] (setting [7]) came to 41%.
`O=C[C@H](CC(=O)O)NC(=O)[C@@H]1CCCN2C(=O)CCN(NC(=O)c3ccc(O)cc3)C(=O)N12` [Compound 1056, [3S(4S)]3-[6,10-Dioxo-7-(4-hydroxybenzoylamino)-1,2,3,4,7,8,9,10-octahydro-6H-pyridazino[1,2-a][1,2,4]triazepine-4-carboxamido]-4-oxobutanoic acid] returned a melting point above 300 °C. Also, the negative logarithm of the Ki (pKi) in series [3] (Table 17) is 6.77. The clearance in series [1] (Table 17) was found to be 17 mL/min/kg.
On to `O=C1C[C@H](NC(=O)[C@@H]2CCCN3C(=O)CC[C@H](NC(=O)c4ccccc4)C(=O)N23)C(OC2CCCC2)O1` (stereo partly drawn) [Compound 2100l, [1S,9S(2RS,3S)]9-Benzamido-N-(2-cyclopentyloxy-5-oxo-tetrahydrofuran-3-yl)-6,10-dioxo-1,2,3,4,7,8,9,10-octahydro-6H-pyridazino[1,2-a][1,2]diazepine-1-carboxamide], for which the melting point is 172 to 180 °C. For the same molecule, the negative logarithm of the IC50 (pIC50) in series [2] was 6.12. In series [4], the negative logarithm of the IC50 (pIC50) is 5.66. In addition, the inhibition at 50 mg/kg in series [5] (setting [6]) was 28%. Also, the inhibition at 50 mg/kg in series [5] (setting [7]) is 52%.
As to `O=C[C@H](CC(=O)O)NC(=O)[C@@H]1CCCN2C(=O)CCN(NC(=O)Nc3ccccc3)C(=O)N12` [Compound 265f, [3S(4S)]3-[6,10-Dioxo-1,2,3,4,7,8,9,10-octahydro-7-(3-phenylureido)-6H-pyridazino[1,2-a][1,2,4]triazepine-4-carboxamido]-4-oxobutanoic acid], the melting point is 157 to 162 °C. For the same molecule, the pKi in series [3] (Table 17) is 5.92. Besides, in series [1] (Table 17), the clearance is 24 mL/min/kg.

What is called melting point is the temperature, or range, at which the solid turns liquid. One may read the clearance as the volume of plasma or blood freed of the substance per unit of time. Read a low clearance as a low capacity for elimination. In general, pIC50 refers to −log10 of the IC50, conventionally taken in molar units. The pKi is the negative decadic logarithm of the Ki, by convention in mol/L. A low value points to a large Ki. By inhibition is commonly meant the drop in the measured response relative to a control, in per cent.
